In one series the test system is A549. In words: Tumor cell proliferation (MTS), A549. The format is cell-based. The settings on record: Homo sapiens, 72 hours, complete medium. The protocol: (§1) Measurement of In Vivo Cell Proliferation:
(§2) Tumor cells were trypsinized and plated into 96-well plates at 3,000 per well and incubated in complete medium with 10% FBS for 24 hours. Compounds were added over a final concentration range of 100 μmol/L to 100 nmol/L in 0.1% DMSO and incubated for 72 hours in complete medium. The effects on proliferation were determined by addition of MTS reagent (Promega) according to the instruction, incubation for 2 hours at 37° C. in CO2 incubator, and record the absorbance at 490 nm using an ELISA plate reader.
(§3) Human Cell Lines are Listed Below:
A549: Non small cell lung carcinoma

The next series addresses T1, human PDGFRβ (Homo sapiens, UniProt P09619).
T1 construct: expressed in transfected cells
In words: PDGF dependent cell proliferation (MTS). The format is cell-based. The following applies: PDGFRβ NIH-3T3 cells, PDGF BB 50 ng/ml, 72 hours, serum-free medium; read-out: GI50 nM (PDGF ligand-dependent cell proliferation). The protocol:
PDGF Dependent Cell Proliferation:
NIH-3T3 mouse fibroblasts cell line engineered to stably express human PDGFIRβ was constructed and used to evaluate PDGF dependent cell proliferation. PDGFRβ NIH-3T3 cells were plated into 96-well plates at 5,000 per well and incubated with serum-free medium for 24 hours. Compounds and PDGF BB (50 ng/ml) were added and incubated for 72 hours in serum-free medium. The effects on proliferation were determined by addition of MTS reagent (Promega) according to the instruction, incubation for 2 hours at 37° C. in CO2 incubator, and record the absorbance at 490 nm using an ELISA plate reader.

A further series has as its system A-498. In words: Tumor cell proliferation (MTS), A-498. The format is cell-based. The settings on record: Homo sapiens, A498; 72 hours, complete medium. The method, then:
as §1, §2

The test system of a further series is Bel-7402. In words: Tumor cell proliferation (MTS), Bel-7402. The format is cell-based. The following applies: Homo sapiens, 72 hours, complete medium. The method, then: as §1, §2, §3
Bel-7402: Hepatocellular carcinoma

The test system of the next series is HCT-8. In words: Tumor cell proliferation (MTS), HCT-8. The settings on record: Homo sapiens, 72 hours, complete medium. The format is cell-based. The protocol: as §1, §2, §3
HCT-8: Ileocecal colorectal adenocarcinoma

The next series deals with HUVEC cells. As to the kind of experiment: VEGF dependent cell proliferation (MTS). The format is cell-based. The following applies: Homo sapiens, VEGF 165 50 ng/ml, 72 hours, serum-free medium, read-out: GI50 nM (VEGF ligand-dependent cell proliferation). The method, then:
VEGF Dependent Cell Proliferation:
HUVEC cells were plated into 96-well plates at 6,000 per well and incubated with serum-free medium for 2 hours. Compounds and VEGF 165 (50 ng/ml) were added and incubated for 72 hours in serum-free medium. The effects on proliferation were determined by addition of MTS reagent (Promega) according to the instruction, incubation for 2 hours at 37° C. in CO2 incubator, and record the absorbance at 490 nm using an ELISA plate reader.

The subject of series [1] is total HDAC enzyme (HeLa extract). In words: In vitro inhibition of total HDAC enzyme activity (HDAC Fluorimetric Assay/Drug Discovery Kit). The format is biochemical. The protocol: Measurement of In Vitro Inhibition of Total HDAC Enzyme Activity:
The in vitro inhibition of total HDAC enzyme was determined by HDAC Fluorimetric Assay/Drug Discovery Kit (BIOMOL) according to manufacture's instruction. • 1. Add Assay buffer, diluted trichostatin A or test inhibitor to appropriate wells of the microtiter plate. Following table lists examples of various assay types and the additions required for each test.
• 2. Add diluted HeLa extract or other HDAC sample to all wells except those that are to be “No Enzyme Controls” (Blank). • 3. Allow diluted Fluor de Lys™ Substrate and the samples in the microtiter plate to equilibrate to assay temperature (25° C.). • 4. Initiate HDAC reactions by adding diluted substrate (25 μl) to each well and mixing thoroughly. • 5. Allow HDAC reactions to proceed for desired length of time and then stop them by addition of Fluor de Lys™ Developer (50 μl). Incubate plate at room temperature (25° C.) for 10-15 min. • 6. Read samples in a microtiter-plate reading fluorimeter capable of excitation at a wavelength in the range 350-380 nm and detection of emitted light in the range 440-460 nm. Measurement of In Vivo Inhibition of HDAC Subtype Activity: […]

In another series the test system is Class I HDAC. As to the kind of experiment: P21 reporter gene assay in HeLa cells. The format is cell-based. The following applies: 24 hours. The method, then: HDAC subtype selectivity inhibition assay of tested compounds was carried out by several reporter gene assays experiments. Briefly, HeLa cells were seeded in 96-well plates the day before transfection to give a confluence of 50-80%. Cells were transfected with one of reporter gene plasmid containing a promoter sequence or response element upstream of a luciferase gene construct using FuGene6 transfection reagent according to the manufacturer's instruction (Roche). The promoters or response elements including p21-promoter was fused upstream to the luciferase gene reporter construct. For normalizing the transfection efficiency, a GFP expression plasmid was cotransfected. Cells were allowed to express protein for 24 hours followed by addition of individual compounds or the vehicle (DMSO). 24 hours later the cells were harvested, and the luciferase assay and GFP assay were performed using corresponding assay kits according to the manufacturer's instructions (Promega).

Series [2] concerns human HCT-8 colon cancer xenograft. As to the kind of experiment: Antitumor activity of compounds 33 and 34, HCT-8 xenograft (Example 54). The format is in vivo, nu/nu mice. The method, then:
(§4) The antitumor activity of compound 33 and compound 34 were measured in human HCT-8 colon cancer xenograft model. The female nu/nu mice of 18˜20 g were fed by normal diet for 3 days. Then the cultured HCT-8 human colon cancer cells were implanted into the armpit of 50 mice. When tumors had reached approximately 100 mm^3, the mice were divided into 6 groups randomly. Each group has 8 mice. One group was treated with vehicle. One group was treated with sutent, the positive control drug. Two groups were treated with compound 33. The other two groups were treated with compound 34. Each group was dosed orally once a day for 20 days. Tumor volumes as established by caliper measurements were recorded twice per week, along with body weights. At the end of study, the mice were killed, and tumors were weighed. The tumor growth inhibition of each group was calculated using the formula {[(the average tumor weight of vehicle group)−(the average tumor weight of drug group)]/(the average tumor weight of vehicle group)}×100%.

The nature of series [3]: Body weight in HCT-8 xenograft study (Example 54). The format is in vivo, nu/nu mice. The protocol: as §4
The next series relates to MCF-7. In words: Tumor cell proliferation (MTS), MCF-7. The format is cell-based. The settings on record: Homo sapiens, MCF7; 72 hours, complete medium. The method, then: as §1, §2, §3
MCF-7: Mammary gland adenocarcinoma

Series [4] can be described thus: Body weight in HCT-8 xenograft study (Example 55). The format is in vivo, nu/nu mice. The protocol:
as §4, with “37” for “34”, “When tumors had reached approximately 100 mm^3, the mice were divided into 6 groups randomly. Each group has 8 mice.” left out, “37. Compound 33 was administered twice a day with an interval of 6 hours. Other drugs and vehicle were administered once a day.” for “34.”, “orally” for “orally once a day”

The nature of series [5]: Body weight in SSMC7721 xenograft study (Example 56). The format is in vivo, nu/nu mice. The protocol:
The antitumor activity of compound 33 and compound 37 were measured in human SSMC7721 liver cancer xenograft model. The female nu/nu mice of 18˜20 g were fed by normal diet for 3 days. Then the cultured SSMC7721 human liver cancer cells were implanted into the armpit of 50 mice. […] Each group has 8 mice. One group was treated with vehicle. One group was treated with sutent, the positive control drug. Two groups were treated with compound 33. The other two groups were treated with compound 37. Each group was dosed orally once a day for 30 days. Tumor volumes as established by caliper measurements were recorded twice per week, along with body weights. At the end of study, the mice were killed, and tumors were weighed. The tumor growth inhibition of each group was calculated using the formula {[(the average tumor weight of vehicle group)−(the average tumor weight of drug group)]/(the average tumor weight of vehicle group)}×100%.

Setting [6] is: 30 mg/kg orally once a day for 20 days.
The mark [7] stands for this setting: 60 mg/kg orally once a day for 20 days.
Setting [8] is: 30 mg/kg orally once a day for 30 days.
Where [9] appears, read: 60 mg/kg orally once a day for 30 days.

T1 sequence (P09619 33-1106): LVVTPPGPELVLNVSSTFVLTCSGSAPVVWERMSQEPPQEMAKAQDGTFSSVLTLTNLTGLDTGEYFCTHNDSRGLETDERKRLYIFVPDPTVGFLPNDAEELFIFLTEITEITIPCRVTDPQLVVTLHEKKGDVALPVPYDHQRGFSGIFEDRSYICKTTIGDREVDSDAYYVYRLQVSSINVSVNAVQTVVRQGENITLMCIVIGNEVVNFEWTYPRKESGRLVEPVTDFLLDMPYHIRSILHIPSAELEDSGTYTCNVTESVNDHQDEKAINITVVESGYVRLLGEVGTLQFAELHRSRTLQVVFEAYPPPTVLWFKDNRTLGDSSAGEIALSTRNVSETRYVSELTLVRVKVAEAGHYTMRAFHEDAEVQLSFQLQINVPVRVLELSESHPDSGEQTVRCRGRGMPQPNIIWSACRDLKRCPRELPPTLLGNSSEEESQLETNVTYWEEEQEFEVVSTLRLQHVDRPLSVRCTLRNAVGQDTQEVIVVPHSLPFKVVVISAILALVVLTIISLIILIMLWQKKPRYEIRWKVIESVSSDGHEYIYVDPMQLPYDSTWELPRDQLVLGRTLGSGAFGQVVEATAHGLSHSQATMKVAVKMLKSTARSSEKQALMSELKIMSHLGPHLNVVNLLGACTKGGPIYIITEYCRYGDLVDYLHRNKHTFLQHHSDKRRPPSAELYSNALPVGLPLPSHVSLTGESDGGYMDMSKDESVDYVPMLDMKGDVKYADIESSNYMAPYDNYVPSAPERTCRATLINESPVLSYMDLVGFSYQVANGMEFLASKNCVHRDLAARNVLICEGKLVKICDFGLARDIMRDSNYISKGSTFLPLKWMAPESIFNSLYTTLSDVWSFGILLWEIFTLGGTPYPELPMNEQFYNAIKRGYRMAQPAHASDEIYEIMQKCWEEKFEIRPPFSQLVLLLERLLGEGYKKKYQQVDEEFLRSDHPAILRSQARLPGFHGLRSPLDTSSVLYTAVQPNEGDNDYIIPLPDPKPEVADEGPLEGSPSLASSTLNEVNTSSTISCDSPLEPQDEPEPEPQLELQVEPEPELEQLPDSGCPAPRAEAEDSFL

On to `COc1ccc2c(Oc3ccc4c(C(=O)NCc5ccc(C(=O)Nc6ccccc6N)cn5)cccc4c3)ccnc2c1` [Example 34], for which the GI50 is 11.2 µM in the series on A549; 248 nM at human PDGFRβ; 7.9 µM with A-498; 17.7 µM in the series with Bel-7402; 5.5 µM in the series with HCT-8; 90 nM with HUVEC cells. In the series with MCF-7, this compound yielded a GI50 of 5.2 µM. In addition, the “% inhibition of total HDAC enzyme activity at 30 μM” value (“% inhibition” for short) in series [1] is on record as 38.8%. In addition, the “Class I HDAC (P21 reporter assay) Fold Induction at 10 μM” value with Class I HDAC is 5.0 Fold. In addition, the entries for the “TGI (%) Tumor growth inhibition” value in [2] (setting [6]) and in series [2] (setting [7]) were 3.07% and 32.7%, respectively. For the same compound, the “Tumor weight” value in series [2] (setting [6]) is recorded as 3.95 ± 0.73 g; in series [2] (setting [7]), 2.74 ± 0.77 g. Further, the “Body weight (g) end” value in series [3] (setting [6]) is 21.2 ± 1.9 g; in series [3] (setting [7]), 21.6 ± 2.3 g. The figures for the “Body weight (g) start” value in series [3] (setting [6]) and in [3] (setting [7]) were 19.7 ± 1.2 g and 19.6 ± 1.1 g, respectively.

As to `COc1cc2ncnc(Oc3ccc4c(C(=O)Nc5ccc(F)cc5N)cccc4c3)c2cc1OC` [Example 17, N-(2-amino-4-fluorophenyl)-6-(6,7-dimethoxyquinazolin-4-yloxy)-1-naphthamide], the GI50 is 30 µM in the series on A549; 40 nM at human PDGFRβ; at least 30 µM in the series on A-498; 30 µM in the series on Bel-7402; 3 µM in the series on HCT-8; 3 nM in the series with HUVEC cells. Moreover, the GI50 with MCF-7 is 30 µM. The “% inhibition” value in [1] was determined as 22.5%. Moreover, in the series with Class I HDAC, the “Class I HDAC (P21 reporter assay) Fold Induction at 10 μM” value was 1.1 Fold.

Consider `COc1cc2nccc(Oc3ccc4c(C(=O)Nc5ccc(F)cc5N)cccc4c3)c2cc1OC` [Example 36, N-(2-amino-4-fluorophenyl)-6-(6,7-dimethoxyquinolin-4-yloxy)-1-naphthamide], for which the GI50 with A549 worked out at 7.4 µM; at human PDGFRβ, 3 nM; in the series on A-498, 4.2 µM; in the series on Bel-7402, 12.1 µM; in the series with HCT-8, 4.1 µM; in the series on HUVEC cells it was 2 nM. The GI50 with MCF-7 came to 8.9 µM. Moreover, in series [1], the “% inhibition” value was found to be 14.4%. Also, the “Class I HDAC (P21 reporter assay) Fold Induction at 10 μM” value in the series with Class I HDAC worked out at 1.2 Fold.

With `COc1cc2nccc(Oc3ccc4c(C(=O)NCc5ccc(C(=O)Nc6ccccc6N)cc5)cccc4c3)c2cc1OC` [Example 37, N-(4-((2-aminophenyl)carbamoyl)benzyl)-6-(6,7-dimethoxyquinolin-4-yloxy)-1-naphthamide], the GI50 with A549 is 30 µM; on human PDGFRβ, 159 nM; in the series with A-498 it was at least 30 µM; with Bel-7402, 30 µM; in the series on HCT-8, 30 µM; in the series on HUVEC cells it was 4 nM. In the series on MCF-7, this compound had a GI50 of 30 µM. Also, the “% inhibition” value in series [1] is listed as 35.9%. Moreover, the “Class I HDAC (P21 reporter assay) Fold Induction at 10 μM” value in the series on Class I HDAC was found to be 3.0 Fold. In addition, the “Body weight (g) end” value in [4] (setting [6]) came out at 23.6 ± 2.2 g; in [4] (setting [7]), 24.1 ± 2.1 g; in series [5] (setting [8]) it was 25.3 ± 0.9 g; in [5] (setting [9]), 24.3 ± 1.1 g. Further, the “Body weight (g) start” value in [4] (setting [6]) stood at 20.6 ± 0.8 g; in [4] (setting [7]) it was 20.8 ± 0.8 g; in series [5] (setting [8]), 20.7 ± 1.2 g; in [5] (setting [9]), 21.4 ± 0.6 g.

In the case of `COc1cc2nccc(Oc3ccc4c(C(=O)NCc5ccc(C(=O)Nc6ccccc6N)cn5)cccc4c3)c2cc1OC` [Example 38], the GI50 with A549 amounted to 30 µM; at human PDGFRβ, 74 nM; in the series with A-498 it was 6.9 µM; in the series with Bel-7402 it was 30 µM; with HCT-8, 8 µM; in the series on HUVEC cells, 25 nM. The same compound registered a GI50 in the series on MCF-7 of 9.4 µM. Also, the “% inhibition” value in [1] turned out to be 39.3%. Further, in the series on Class I HDAC, the “Class I HDAC (P21 reporter assay) Fold Induction at 10 μM” value is reported as 3.1 Fold.

With `COc1cc2ncnc(Oc3ccc4c(C(=O)NCc5ccc(C(=O)Nc6ccccc6N)cn5)cccc4c3)c2cc1OC` [Example 25], the GI50 with A549 came to 30 µM; on human PDGFRβ, 69 nM; in the series with A-498, 14.7 µM; in the series on Bel-7402, 30 µM; in the series with HCT-8, 4.9 µM; with HUVEC cells, 13 nM. In addition, in the series on MCF-7, the GI50 was determined as 6.1 µM. In addition, in series [1], the “% inhibition” value turned out to be 47.9%. Also, the “Class I HDAC (P21 reporter assay) Fold Induction at 10 μM” value with Class I HDAC came out at 12.1 Fold.
